Several values for one entry are separate records, joined by “and”; a condition that tells them apart may be missing. Identical values can stand only once. ± gives the uncertainty stated by the source.
Experiment: xn = mol fraction of the nth substance listed

Nc1cccc(Cl)c1 + O=C1CCCCC1
viscosity [mPa·s], 100 kPa
Settings	x1 = 0.0814	x1 = 0.1705	x1 = 0.2826	x1 = 0.3886	x1 = 0.4996	x1 = 0.5895	x1 = 0.6899	x1 = 0.7755	x1 = 0.8882
303.15 K	1.954 ± 0.1	2.11 ± 0.1	2.323 ± 0.1	2.542 ± 0.1	2.793 ± 0.1	3.014 ± 0.1	3.28 ± 0.1	3.525 ± 0.1	3.875 ± 0.1
308.15 K	1.779 ± 0.1	1.92 ± 0.1	2.112 ± 0.1	2.31 ± 0.1	2.535 ± 0.1	2.733 ± 0.1	2.971 ± 0.1	3.191 ± 0.1	3.503 ± 0.1
313.15 K	1.589 ± 0.1	1.716 ± 0.1	1.888 ± 0.1	2.065 ± 0.1	2.266 ± 0.1	2.442 ± 0.1	2.655 ± 0.1	2.85 ± 0.1	3.128 ± 0.1
318.15 K	1.382 ± 0.1	1.495 ± 0.1	1.648 ± 0.1	1.805 ± 0.1	1.984 ± 0.1	2.141 ± 0.1	2.33 ± 0.1	2.505 ± 0.1	2.753 ± 0.1

C1C[C@@H]2[C@H]3CC[C@H](C3)[C@@H]2C1 + CC(C)OC(C)C
viscosity [mPa·s], 101.33 kPa
Settings	x2 = 0.1	x2 = 0.2043	x2 = 0.3168	x2 = 0.4	x2 = 0.4997	x2 = 0.5937	x2 = 0.703	x2 = 0.8066	x2 = 0.9085
293.15 K	2.279 ± 0.14	1.725 ± 0.11	1.309 ± 0.08	1.074 ± 0.066	0.865 ± 0.053	0.719 ± 0.044	0.592 ± 0.036	0.493 ± 0.03	0.412 ± 0.025
298.15 K	2.062 ± 0.13	1.572 ± 0.096	1.206 ± 0.074	0.995 ± 0.061	0.802 ± 0.049	0.666 ± 0.041	0.556 ± 0.034	0.473 ± 0.029	0.391 ± 0.024
303.15 K	1.88 ± 0.12	1.441 ± 0.088	1.116 ± 0.068	0.926 ± 0.057	0.76 ± 0.047	0.631 ± 0.039	0.532 ± 0.033	0.454 ± 0.028	0.376 ± 0.023
308.15 K	1.712 ± 0.11	1.324 ± 0.081	1.026 ± 0.063	0.861 ± 0.053	0.706 ± 0.043	0.593 ± 0.036	0.497 ± 0.03	0.426 ± 0.026	0.357 ± 0.022
313.15 K	1.573 ± 0.096	1.226 ± 0.075	0.95 ± 0.058	0.799 ± 0.049	0.659 ± 0.04	0.558 ± 0.034	0.469 ± 0.029	0.402 ± 0.025	0.338 ± 0.021

CCC(=O)O + c1ccccc1
101.33 kPa
Settings	viscosity
293.15 K, x1 = 0.2	0.66 ± 0.013 mPa·s and 0.66 ± 0.018 mPa·s
293.15 K, x1 = 0.4	0.7 ± 0.019 mPa·s
293.15 K, x1 = 0.5	0.734 ± 0.015 mPa·s and 0.734 ± 0.02 mPa·s
293.15 K, x1 = 0.8	0.889 ± 0.024 mPa·s
303.15 K, x1 = 0.2	0.575 ± 0.016 mPa·s
303.15 K, x1 = 0.4	0.61 ± 0.017 mPa·s
303.15 K, x1 = 0.5	0.639 ± 0.017 mPa·s
303.15 K, x1 = 0.8	0.774 ± 0.021 mPa·s
308.15 K, x1 = 0.0534	0.5535 ± 0.0073 mPa·s
308.15 K, x1 = 0.1063	0.5551 ± 0.0073 mPa·s
308.15 K, x1 = 0.1575	0.5617 ± 0.0072 mPa·s
308.15 K, x1 = 0.2	0.542 ± 0.011 mPa·s and 0.542 ± 0.015 mPa·s
308.15 K, x1 = 0.2079	0.5677 ± 0.0072 mPa·s
308.15 K, x1 = 0.3318	0.5849 ± 0.0071 mPa·s
308.15 K, x1 = 0.4	0.575 ± 0.016 mPa·s
308.15 K, x1 = 0.4118	0.5998 ± 0.0072 mPa·s
308.15 K, x1 = 0.5	0.602 ± 0.012 mPa·s and 0.602 ± 0.016 mPa·s
308.15 K, x1 = 0.5132	0.6282 ± 0.0073 mPa·s
308.15 K, x1 = 0.6132	0.6564 ± 0.0073 mPa·s
308.15 K, x1 = 0.7107	0.7012 ± 0.0076 mPa·s
308.15 K, x1 = 0.8	0.729 ± 0.02 mPa·s
308.15 K, x1 = 0.8085	0.7408 ± 0.0078 mPa·s
308.15 K, x1 = 0.8566	0.7662 ± 0.0079 mPa·s
308.15 K, x1 = 0.9045	0.8033 ± 0.0082 mPa·s
308.15 K, x1 = 0.9524	0.8347 ± 0.0084 mPa·s
318.15 K, x1 = 0.2	0.48 ± 0.013 mPa·s
318.15 K, x1 = 0.4	0.51 ± 0.014 mPa·s
318.15 K, x1 = 0.5	0.533 ± 0.014 mPa·s
318.15 K, x1 = 0.8	0.643 ± 0.017 mPa·s

CCCCCCCCCCCCCC[P+](CCCCCC)(CCCCCC)CCCCCC.c1c[n-]nn1 + CCCCn1cc[n+](C)c1.O=S(=O)([N-]S(=O)(=O)C(F)(F)F)C(F)(F)F
viscosity [mPa·s], 100 kPa
Settings	293.15 K	298.15 K	303.15 K	308.15 K	313.15 K	318.15 K	323.15 K
x1 = 0.1	98 ± 12	77 ± 9	61 ± 7	49 ± 6	–	–	–
x1 = 0.2	164 ± 20	123 ± 15	96 ± 12	76 ± 9	62 ± 8	50 ± 6	–
x1 = 0.278	242 ± 30	178 ± 22	135 ± 17	107 ± 13	84 ± 10	68 ± 8	56 ± 7
x1 = 0.612	602 ± 78	428 ± 54	311 ± 39	231 ± 29	174 ± 21	135 ± 16	107 ± 13
x1 = 0.699	663 ± 86	468 ± 60	339 ± 43	252 ± 31	190 ± 23	147 ± 18	115 ± 14
x1 = 0.8	723 ± 94	507 ± 65	368 ± 46	273 ± 34	205 ± 25	158 ± 19	125 ± 15
x1 = 0.9	685 ± 89	486 ± 62	353 ± 44	263 ± 33	199 ± 25	154 ± 19	123 ± 15

CCC(N)C(=O)[O-].[Na+] (stereo not drawn) + O
viscosity [mPa·s], 101.3 kPa
Settings	x1 = 0.009	x1 = 0.018	x1 = 0.029	x1 = 0.039	x1 = 0.05	x1 = 0.062
303.15 K	1.034 ± 0.066	1.36 ± 0.083	1.815 ± 0.11	2.492 ± 0.17	3.501 ± 0.23	4.954 ± 0.26
308.15 K	0.924 ± 0.059	1.217 ± 0.072	1.595 ± 0.096	2.167 ± 0.14	3.005 ± 0.19	4.223 ± 0.23
313.15 K	0.836 ± 0.052	1.093 ± 0.063	1.417 ± 0.083	1.91 ± 0.12	2.608 ± 0.16	3.646 ± 0.2
318.15 K	0.76 ± 0.046	0.98 ± 0.055	1.27 ± 0.073	1.695 ± 0.1	2.295 ± 0.14	3.173 ± 0.17
323.15 K	0.697 ± 0.042	0.9 ± 0.049	1.143 ± 0.063	1.516 ± 0.091	2.029 ± 0.12	2.777 ± 0.14

CCC(=O)O + CC(C)O
viscosity [mPa·s], 101 kPa
Settings	x2 = 0.007361	x2 = 0.0288	x2 = 0.04944	x2 = 0.06903	x2 = 0.1	x2 = 0.1291	x2 = 0.1819	x2 = 0.2287
298.15 K	2.67 ± 0.54	2.6 ± 0.52	2.54 ± 0.51	2.475 ± 0.5	2.4 ± 0.48	2.342 ± 0.47	2.277 ± 0.46	2.22 ± 0.45
308.15 K	1.99 ± 0.4	1.948 ± 0.39	1.915 ± 0.39	1.882 ± 0.38	1.836 ± 0.37	1.8 ± 0.36	1.75 ± 0.35	1.71 ± 0.34
318.15 K	1.54 ± 0.31	1.52 ± 0.31	1.5 ± 0.3	1.484 ± 0.3	1.454 ± 0.29	1.428 ± 0.29	1.392 ± 0.28	1.367 ± 0.28

CCC(=O)O + C1COCO1
298.15 K, 101 kPa
Settings	viscosity [mPa·s]
x2 = 0.1	1.018 ± 0.0086
x2 = 0.2	1.003 ± 0.0085
x2 = 0.3	0.9794 ± 0.0083
x2 = 0.4	0.9457 ± 0.008
x2 = 0.5	0.9011 ± 0.0076
x2 = 0.6	0.8454 ± 0.0072
x2 = 0.7	0.788 ± 0.0067
x2 = 0.8	0.7223 ± 0.0062
x2 = 0.9	0.6544 ± 0.0056
